Source: article PMC12090182, “Repurposing of the RIPK1-Selective Benzo[1,4]oxazepin-4-one Scaffold for the Development of a Type III LIMK1/2 Inhibitor” (ACS Chemical Biology, 2025)

What was measured:
Assay in all cases: DSF selectivity screening
Assay type in all cases: binding
Settings in all cases: 10 μM compound
FLT1A = FLT1A (Homo sapiens, UniProt P17948)
Summary of the method: (§1)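 Thermal shift: 2 μM kinase domain + 10 μM cpd, 20 mM HEPES pH 7.5/500 mM NaCl, SYPRO Orange; ramp 3 °C/min, ex 465/em 590 nm; Tm from Boltzmann fit inflection.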

PAK1A = PAK1A (Homo sapiens, UniProt Q13153)
Summary of the method: as §1

MAPKAPK2A = MAPKAPK2A (Homo sapiens, UniProt P49137)
Summary of the method: as §1

TAF1A = system: TAF1A
Summary of the method: as §1

MAPK8B = MAPK8B (Homo sapiens, UniProt P45983)
Chain of MAPK8B (P45983 1-364): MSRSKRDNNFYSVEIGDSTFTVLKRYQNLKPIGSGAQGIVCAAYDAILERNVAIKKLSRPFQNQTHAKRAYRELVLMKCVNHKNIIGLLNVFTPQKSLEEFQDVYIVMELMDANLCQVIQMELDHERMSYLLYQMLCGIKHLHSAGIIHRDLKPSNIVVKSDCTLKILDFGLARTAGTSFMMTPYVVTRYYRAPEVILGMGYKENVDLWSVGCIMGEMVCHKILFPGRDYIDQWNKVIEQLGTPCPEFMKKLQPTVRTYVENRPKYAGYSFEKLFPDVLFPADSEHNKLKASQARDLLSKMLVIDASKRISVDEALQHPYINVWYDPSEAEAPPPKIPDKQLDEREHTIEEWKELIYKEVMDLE
Summary of the method: as §1

MARK4A = MARK4A (Homo sapiens, UniProt Q96L34)
Summary of the method: as §1

CASKA = CASKA (Homo sapiens, UniProt O14936)
Chain of CASKA (O14936 12-276): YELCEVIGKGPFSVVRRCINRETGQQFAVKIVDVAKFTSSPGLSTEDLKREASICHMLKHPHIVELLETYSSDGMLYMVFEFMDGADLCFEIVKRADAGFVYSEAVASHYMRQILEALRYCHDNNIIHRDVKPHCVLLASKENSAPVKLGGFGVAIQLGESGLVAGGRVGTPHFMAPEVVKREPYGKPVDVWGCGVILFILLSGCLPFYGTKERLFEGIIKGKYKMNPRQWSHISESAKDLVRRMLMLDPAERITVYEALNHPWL
Summary of the method: as §1

CAMK4A = CAMK4A (Homo sapiens, UniProt Q16566)
Summary of the method: as §1

PIM1A = PIM1A (Homo sapiens, UniProt P11309)
Summary of the method: as §1

GPRK5A = GPRK5A (Homo sapiens, UniProt P34947)
Summary of the method: as §1

RPS6KA1A = system: RPS6KA1A
Summary of the method: as §1

EPHB3A = EPHB3A (Homo sapiens, UniProt P54753)
Chain of EPHB3A (P54753 616-910): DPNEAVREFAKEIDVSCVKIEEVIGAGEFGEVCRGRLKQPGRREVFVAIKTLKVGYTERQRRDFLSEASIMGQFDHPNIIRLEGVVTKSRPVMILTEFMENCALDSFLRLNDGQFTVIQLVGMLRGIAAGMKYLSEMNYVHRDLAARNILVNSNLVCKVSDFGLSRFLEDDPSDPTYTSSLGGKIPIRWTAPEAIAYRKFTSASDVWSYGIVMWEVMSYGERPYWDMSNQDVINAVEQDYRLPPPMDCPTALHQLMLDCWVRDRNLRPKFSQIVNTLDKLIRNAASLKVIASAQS
Summary of the method: as §1

CDC42BPAA = system: CDC42BPAA
Summary of the method: as §1

DYRK1AA = DYRK1AA (Homo sapiens, UniProt Q13627)
Summary of the method: as §1

FESA = FESA (Homo sapiens, UniProt P07332)
Summary of the method: as §1

GAKA = GAKA (Homo sapiens, UniProt O14976)
Summary of the method: as §1

SLKA = SLKA (Homo sapiens, UniProt Q9H2G2)
Chain of SLKA (Q9H2G2 19-320): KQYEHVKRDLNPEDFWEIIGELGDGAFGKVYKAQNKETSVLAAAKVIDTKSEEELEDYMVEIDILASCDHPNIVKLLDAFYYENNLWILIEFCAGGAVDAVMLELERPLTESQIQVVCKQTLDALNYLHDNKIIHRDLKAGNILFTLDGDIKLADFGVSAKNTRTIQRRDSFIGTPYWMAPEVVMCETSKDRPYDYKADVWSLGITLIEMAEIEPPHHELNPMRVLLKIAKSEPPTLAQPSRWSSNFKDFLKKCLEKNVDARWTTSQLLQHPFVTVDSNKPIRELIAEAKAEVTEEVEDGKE
Summary of the method: as §1

AKT3A = AKT3A (Homo sapiens, UniProt Q9Y243)
Chain of AKT3A (Q9Y243 148-479): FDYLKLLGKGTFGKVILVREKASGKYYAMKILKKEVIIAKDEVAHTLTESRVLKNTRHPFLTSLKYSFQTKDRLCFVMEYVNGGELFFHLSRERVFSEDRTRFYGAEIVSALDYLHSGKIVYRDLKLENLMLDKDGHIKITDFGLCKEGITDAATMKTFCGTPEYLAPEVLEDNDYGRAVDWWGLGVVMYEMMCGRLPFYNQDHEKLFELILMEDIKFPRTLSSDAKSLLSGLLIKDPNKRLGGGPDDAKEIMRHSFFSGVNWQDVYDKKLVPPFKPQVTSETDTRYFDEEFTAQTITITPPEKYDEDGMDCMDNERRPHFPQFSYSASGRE
Summary of the method: as §1

MARK3A = MARK3A (Homo sapiens, UniProt P27448)
Chain of MARK3A (P27448 48-370): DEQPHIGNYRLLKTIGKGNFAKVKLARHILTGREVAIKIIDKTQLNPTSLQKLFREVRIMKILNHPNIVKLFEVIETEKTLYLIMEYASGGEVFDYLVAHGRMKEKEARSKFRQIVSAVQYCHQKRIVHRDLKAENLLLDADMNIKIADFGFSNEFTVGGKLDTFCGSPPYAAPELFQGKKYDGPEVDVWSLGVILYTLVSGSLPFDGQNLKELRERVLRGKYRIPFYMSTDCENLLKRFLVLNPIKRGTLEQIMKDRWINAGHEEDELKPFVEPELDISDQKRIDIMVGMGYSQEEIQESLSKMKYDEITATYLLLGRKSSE
Summary of the method: as §1

CAMKK2B = CAMKK2B (Homo sapiens, UniProt Q96RR4)
Chain of CAMKK2B (Q96RR4 161-449): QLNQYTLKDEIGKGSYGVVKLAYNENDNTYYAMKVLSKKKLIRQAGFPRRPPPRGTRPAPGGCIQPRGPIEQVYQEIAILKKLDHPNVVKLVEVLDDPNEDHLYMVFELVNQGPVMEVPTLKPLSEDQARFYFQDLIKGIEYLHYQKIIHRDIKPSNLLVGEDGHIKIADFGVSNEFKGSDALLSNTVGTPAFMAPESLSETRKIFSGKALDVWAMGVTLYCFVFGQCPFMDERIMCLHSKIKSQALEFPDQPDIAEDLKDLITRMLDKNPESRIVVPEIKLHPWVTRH
Summary of the method: as §1

DAPK3A = DAPK3A (Homo sapiens, UniProt O43293)
Summary of the method: as §1

HIPK2 = HIPK2 (Homo sapiens, UniProt Q9H2X6)
Summary of the method: as §1

EPHB1A = EPHB1A (Homo sapiens, UniProt P54762)
Chain of EPHB1A (P54762 602-896): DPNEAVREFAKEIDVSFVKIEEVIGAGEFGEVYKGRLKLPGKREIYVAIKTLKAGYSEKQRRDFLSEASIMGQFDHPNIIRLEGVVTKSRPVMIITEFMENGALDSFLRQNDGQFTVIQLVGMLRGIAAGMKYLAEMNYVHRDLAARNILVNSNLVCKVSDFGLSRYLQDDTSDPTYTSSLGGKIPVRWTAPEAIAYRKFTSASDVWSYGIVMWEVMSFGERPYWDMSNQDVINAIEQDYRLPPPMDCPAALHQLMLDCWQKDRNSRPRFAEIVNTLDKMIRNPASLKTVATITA
Summary of the method: as §1

EPHA5A = EPHA5A (Homo sapiens, UniProt P54756)
Summary of the method: as §1

MAP2K6A = MAP2K6A (Homo sapiens, UniProt P52564)
Summary of the method: as §1

CHEK2A = CHEK2A (Homo sapiens, UniProt O96017)
Summary of the method: as §1

STK17AA = STK17AA (Homo sapiens, UniProt Q9UEE5)
Summary of the method: as §1

MAPK15A = MAPK15A (Homo sapiens, UniProt Q8TD08)
Summary of the method: as §1

STK39A = STK39A (Homo sapiens, UniProt Q9UEW8)
Summary of the method: as §1

SRPK1A = SRPK1A (Homo sapiens, UniProt Q96SB4)
Summary of the method: as §1

FGFR2A = FGFR2A (Homo sapiens, UniProt P21802)
Summary of the method: as §1

BMXA = BMXA (Homo sapiens, UniProt P51813)
Chain of BMXA (P51813 411-675): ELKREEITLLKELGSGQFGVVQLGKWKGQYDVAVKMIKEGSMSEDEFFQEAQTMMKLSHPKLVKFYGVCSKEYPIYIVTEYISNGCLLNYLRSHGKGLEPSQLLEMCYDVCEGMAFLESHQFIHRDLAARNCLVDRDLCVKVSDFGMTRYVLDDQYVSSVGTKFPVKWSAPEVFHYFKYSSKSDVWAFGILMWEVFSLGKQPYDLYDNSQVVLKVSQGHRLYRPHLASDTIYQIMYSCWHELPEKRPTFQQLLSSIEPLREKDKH
Summary of the method: as §1

PLK4A = PLK4A (Homo sapiens, UniProt O00444)
Chain of PLK4A (O00444 2-275): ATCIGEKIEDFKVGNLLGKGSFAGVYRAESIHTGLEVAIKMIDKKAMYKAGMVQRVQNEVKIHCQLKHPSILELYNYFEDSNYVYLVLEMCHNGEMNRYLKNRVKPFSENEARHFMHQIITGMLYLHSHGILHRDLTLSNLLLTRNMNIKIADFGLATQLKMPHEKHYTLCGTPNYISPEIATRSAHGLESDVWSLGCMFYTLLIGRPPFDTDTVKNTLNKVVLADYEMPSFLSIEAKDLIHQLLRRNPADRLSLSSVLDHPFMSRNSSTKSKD
Summary of the method: as §1

CDK2A = CDK2A (Homo sapiens, UniProt P24941)
Summary of the method: as §1

STK38LA = STK38LA (Homo sapiens, UniProt Q9Y2H1)
Chain of STK38LA (Q9Y2H1 90-453): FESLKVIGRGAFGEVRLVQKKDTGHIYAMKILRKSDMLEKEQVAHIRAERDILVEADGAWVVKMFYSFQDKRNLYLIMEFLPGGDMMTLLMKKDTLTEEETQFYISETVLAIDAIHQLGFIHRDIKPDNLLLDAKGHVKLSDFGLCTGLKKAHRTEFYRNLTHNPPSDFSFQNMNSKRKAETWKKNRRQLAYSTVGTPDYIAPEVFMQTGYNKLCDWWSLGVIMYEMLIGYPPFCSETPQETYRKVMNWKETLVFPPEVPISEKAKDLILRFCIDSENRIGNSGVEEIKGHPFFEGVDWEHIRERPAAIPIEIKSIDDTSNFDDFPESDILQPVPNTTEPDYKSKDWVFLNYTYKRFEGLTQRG
Summary of the method: as §1

CAMK2DA = CAMK2DA (Homo sapiens, UniProt Q13557)
Summary of the method: as §1

DMPKA = DMPKA (Homo sapiens, UniProt Q09013)
Chain of DMPKA (Q09013 whole entry): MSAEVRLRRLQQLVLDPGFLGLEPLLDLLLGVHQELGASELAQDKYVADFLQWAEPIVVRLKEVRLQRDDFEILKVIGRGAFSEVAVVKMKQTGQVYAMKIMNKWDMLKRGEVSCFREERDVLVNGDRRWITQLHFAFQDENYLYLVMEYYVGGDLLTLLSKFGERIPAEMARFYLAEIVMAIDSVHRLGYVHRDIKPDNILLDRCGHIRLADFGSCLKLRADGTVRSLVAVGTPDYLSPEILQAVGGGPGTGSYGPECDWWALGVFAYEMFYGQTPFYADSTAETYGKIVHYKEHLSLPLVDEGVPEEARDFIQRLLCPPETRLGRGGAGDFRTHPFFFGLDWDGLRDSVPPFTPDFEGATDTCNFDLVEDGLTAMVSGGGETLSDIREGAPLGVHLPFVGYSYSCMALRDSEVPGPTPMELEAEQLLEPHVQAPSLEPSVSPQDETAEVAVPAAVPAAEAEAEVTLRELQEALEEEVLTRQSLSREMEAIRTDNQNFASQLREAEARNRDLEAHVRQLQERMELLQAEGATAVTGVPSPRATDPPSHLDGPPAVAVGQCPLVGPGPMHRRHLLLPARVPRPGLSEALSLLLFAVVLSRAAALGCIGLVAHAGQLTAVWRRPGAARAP
Summary of the method: as §1

CAMK1GA = CAMK1GA (Homo sapiens, UniProt Q96NX5)
Summary of the method: as §1

PIM3A = PIM3A (Homo sapiens, UniProt Q86V86)
Summary of the method: as §1

CDKL1A = CDKL1A (Homo sapiens, UniProt Q00532)
Chain of CDKL1A (Q00532 whole entry): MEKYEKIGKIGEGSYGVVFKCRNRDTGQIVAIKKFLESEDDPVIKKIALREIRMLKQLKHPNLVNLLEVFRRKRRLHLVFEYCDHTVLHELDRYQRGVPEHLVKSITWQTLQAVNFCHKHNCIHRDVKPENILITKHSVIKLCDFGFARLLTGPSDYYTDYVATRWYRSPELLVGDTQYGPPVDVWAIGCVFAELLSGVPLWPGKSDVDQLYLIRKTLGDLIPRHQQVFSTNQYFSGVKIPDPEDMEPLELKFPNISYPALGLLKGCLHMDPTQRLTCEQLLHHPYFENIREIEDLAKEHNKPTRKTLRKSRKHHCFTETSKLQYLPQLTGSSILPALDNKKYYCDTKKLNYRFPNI
Summary of the method: as §1

ULK3A = ULK3A (Homo sapiens, UniProt Q6PHR2)
Summary of the method: as §1

Chain of FLT1A (P17948 801-1158): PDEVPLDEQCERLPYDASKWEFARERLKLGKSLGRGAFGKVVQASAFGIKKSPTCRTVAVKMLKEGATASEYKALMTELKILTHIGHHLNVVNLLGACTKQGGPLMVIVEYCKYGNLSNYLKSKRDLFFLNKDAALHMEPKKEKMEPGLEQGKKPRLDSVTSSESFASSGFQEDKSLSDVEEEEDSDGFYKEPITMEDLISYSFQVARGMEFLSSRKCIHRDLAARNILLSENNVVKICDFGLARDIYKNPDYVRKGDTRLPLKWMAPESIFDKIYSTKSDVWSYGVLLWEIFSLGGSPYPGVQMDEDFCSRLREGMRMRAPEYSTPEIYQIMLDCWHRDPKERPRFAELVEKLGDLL

CN1C(=O)[C@@H](N2CCc3c(nn(Cc4ccccc4)c3C(N)=O)C2=O)COc2cc(Cl)ccc21 [Compound 10, (S)-2-benzyl-6-(8-chloro-5-methyl-4-oxo-2,3,4,5-tetrahydrobenzo[b][1,4]oxazepin-3-yl)-7-oxo-4,5,6,7-tetrahydro-2H-pyrazolo[3,4-c]pyridine-3-carboxamide]
ΔTm at 10 µM (FLT1A): 0.2 °C | ΔTm at 10 µM (PAK1A): 0.2 °C | ΔTm at 10 µM (MAPKAPK2A): 0 °C | ΔTM (TAF1A): 0.3 K | ΔTm at 10 µM (MAPK8B): 0.1 °C | ΔTm at 10 µM (MARK4A): -1.9 °C | ΔTm at 10 µM (CASKA): 0.1 °C | ΔTm at 10 µM (CAMK4A): 0.1 °C | ΔTm at 10 µM (PIM1A): -0.9 °C | ΔTm at 10 µM (GPRK5A): -0.2 °C | ΔTM (RPS6KA1A): 0 K | ΔTm at 10 µM (EPHB3A): 0.2 °C | ΔTM (CDC42BPAA): -0.1 K | ΔTm at 10 µM (DYRK1AA): 0 °C | ΔTm at 10 µM (FESA): 0.1 °C | ΔTm at 10 µM (GAKA): 0 °C | ΔTm at 10 µM (SLKA): -0.3 °C | ΔTm at 10 µM (AKT3A): 0 °C | ΔTm at 10 µM (MARK3A): 0.3 °C | ΔTm at 10 µM (CAMKK2B): -0.2 °C | ΔTm at 10 µM (DAPK3A): -0.1 °C | ΔTm at 10 µM (HIPK2): 0.3 °C | ΔTm at 10 µM (EPHB1A): 0.1 °C | ΔTm at 10 µM (EPHA5A): 0 °C | ΔTm at 10 µM (MAP2K6A): 0.1 °C | ΔTm at 10 µM (CHEK2A): -0.1 °C | ΔTm at 10 µM (STK17AA): 0 °C | ΔTm at 10 µM (MAPK15A): 0 °C | ΔTm at 10 µM (STK39A): 0.1 °C | ΔTm at 10 µM (SRPK1A): 0 °C | ΔTm at 10 µM (FGFR2A): 0.1 °C | ΔTm at 10 µM (BMXA): 0.1 °C | ΔTm at 10 µM (PLK4A): 0.2 °C | ΔTm at 10 µM (CDK2A): 0 °C | ΔTm at 10 µM (STK38LA): 0 °C | ΔTm at 10 µM (CAMK2DA): 0.4 °C | ΔTm at 10 µM (DMPKA): 0.1 °C | ΔTm at 10 µM (CAMK1GA): -0.2 °C | ΔTm at 10 µM (PIM3A): 0.5 °C | ΔTm at 10 µM (CDKL1A): 0 °C | ΔTm at 10 µM (ULK3A): 0.2 °C
